Assay results: EP0536419B1, “TRICYCLIC TRIAZOLE DERIVATIVES, PRODUCTION AND USE THEREOF” (TORAY INDUSTRIES, INC., priority 1991, dated 1992)
Where a name gives a salt, the structure may show the parent alone. Read-outs that look alike come from different tables or passages of the source.

What was measured:
[1] = molecular target: rabbit platelets (Oryctolagus cuniculus, UniProt G1TEI7); assay: in vitro platelet agglutination inhibition test (PAF-induced); assay type: cell-based; settings: rabbit platelet-rich plasma, PAF final concentration 10 ng/ml, 37°C
Chain of rabbit platelets (G1TEI7 1-342): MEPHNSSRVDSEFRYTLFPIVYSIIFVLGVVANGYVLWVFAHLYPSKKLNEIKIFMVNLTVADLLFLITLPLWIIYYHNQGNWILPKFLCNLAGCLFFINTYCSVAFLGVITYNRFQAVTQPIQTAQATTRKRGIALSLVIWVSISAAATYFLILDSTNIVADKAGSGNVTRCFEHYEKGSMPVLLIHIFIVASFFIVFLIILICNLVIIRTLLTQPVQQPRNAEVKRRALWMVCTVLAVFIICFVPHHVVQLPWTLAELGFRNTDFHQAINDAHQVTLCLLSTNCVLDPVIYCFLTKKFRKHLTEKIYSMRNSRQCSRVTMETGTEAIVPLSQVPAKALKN
Method: To determine the PAF-antagonizing property of the compounds, the PAF-induced agglutination of rabbit platelets in vitro is utilized. To obtain platelet-rich plasma (PRP), venous blood is taken from rabbit auricular vein into a plastic centrifugal tube containing 1.0% sodium citrate solution. The ratio of sodium citrate solution to blood is 1:10. The obtained citrate-containing blood is centrifuged at 70 x g (625 rpm) at room temperature for 20 minutes and the PRP in the upper layer is transferred to another plastic tube. The remaining lower layer is further centrifuged at 1500 x g (2800 rpm) for 10 minutes and the platelet poor plasma (PPP) in the upper layer is recovered. The platelet agglutination is measured by using aggregometer commercially available from Niko Bioscience, Inc. An aliquote of the PRP is poured into a cubette for measurement. Immediately thereafter, aspirin, creatinin phosphate and creatinin phosphokinase are added to final concentrations of 0.1 mM, 7 mM and 45 U/ml, respectively. Then a solution of a test compound is added and the resulting mixture is stirred at 37°C for 2 minutes. To the resultant, PAF (final concentration: 10 ng/ml) is added to induce platelet aggregation. The platelet aggregation rate is calculated from the relative maximum value in each aggregation curve taking the transmittance of PPP as the maximum aggregation (100% aggregation). Using the aggregation rate when physiological saline was added as a control, the inhibition rate which was the ratio of the aggregation rate when the test compound was added to the control was calculated and the IC50 values were determined by interpolation.

[2] = molecular target: T1, PAF receptor (Oryctolagus cuniculus, UniProt G1TEI7); assay: Binding test using [3H]-PAF (PAF receptor binding test); parameters: species or system rabbit; settings: rabbit platelet membrane fraction, [3H]-PAF 0.4 nM, 25°C, 60 minutes; read-out: Receptor Binding Inhibition IC50 (converted)
T1 construct: Cell membrane fraction of rabbit platelets was prepared; from tissue; host or cells: rabbit platelets (cell membrane fraction)
T1 sequence (G1TEI7 1-342): as above
Method: Binding Test Using [^3H]-PAF (PAF receptor binding test)
Cell membrane fraction of rabbit platelets was prepared in accordance with the method by Hwang et al (Biochemistry; 22; 4756, (1983)). In 10 mM Tris buffer containing 0.25% bovine serum albumin, 50 mg of this membrane fraction was suspended and tritium-labelled PAF [^3H]-PAF; 0.4 nM) and a test compound were added thereto. After incubating the resulting mixture at 25°C for 60 minutes, the mixture was subjected to filtration through a filter paper made of glass fibers. The filter paper was washed with cold Tris buffer three times and then transferred to a vial. A scintillator was added thereto and the dose of radioactivity was measured with a liquid scintillation counter. The inhibition rate (binding ability) of the test compound was calculated according to the following equation and IC50 values were determined by interpolation. Inhibition Rate (%) = {1 - [((A - B))/((C - B))]} x 100 [formula] (wherein A represents amount bound in the presence of the compound, B represents amount bound by non-specific binding which is the dose of [^3H]-PAF bound radioactivity in the presence of 1 µM of PAF, and C represents total amount bound which is the dose of [^3H]-PAF bound radioactivity.
As a control agent, WEB2086 (Japanese Laid-open Patent Application (Kokai) No. 65-176591) disclosed as a PAF-antagonist was used.

[3] = read-out: PAF-Induced Platelet Aggregation IC50 (converted)

Row | IC50 [1, 3] [nM] | IC50 [2] [nM] | SMILES | IC50 ([1]; read-out: PAF-Induced Platelet Aggregation IC50) [nM]
1 | 4270 |  | Cc1nnc2n1-c1ccc(F)cc1N(CCCN1CCC(c3c[nH]c4ccccc34)CC1)C2 [Compound 66, 7-fluoro-4,5-dihydro-1-methyl-5-[3-[4-(3-indolyl)piperidin-1-yl]propyl][1,2,4]triazolo[4,3-a]quinoxaline] | 
2 | 70.9 | 51.2 | Cc1cccc(C(O)(c2ccccc2)C2CCN(CCCN3Cc4nnc(C)n4-c4ccccc43)CC2)c1 (centres unmarked) [Compound 132, 4,5-dihydro-1-methyl-5-[3-[4-[hydroxyphenyl(3-tolyl)methyl]piperidin-1-yl]propyl] [1,2,4]triazolo[4,3-a]quinoxaline] | 
3 | 1590 | 37.9 | COc1cccc(C(O)(c2cccc(OC)c2)C2CCN(CCCN3Cc4nnc(C)n4-c4ccccc43)CC2)c1 [Compound 135, 4,5-dihydro-1-methyl-5-[3-[4-[hydroxybis(3-methoxyphenyl)methyl]piperidin-1-yl]propyl] [1,2,4]triazolo[4,3-a]quinoxaline] | 
4 | 372 | 178 | Cc1nnc2n1-c1ccccc1N(CCCN1CCC(=C(c3ccccc3)c3cccc(Cl)c3)CC1)C2 [Compound 154, 4,5-dihydro-1-methyl-5-[3-[4-[(3-chlorophenyl)phenylmethylene]piperidin-1-yl]propyl] [1,2,4]triazolo[4,3,a]quinoxaline] | 
5 | 173 | 67.5 | Cc1cccc(C(=C2CCN(CCCN3Cc4nnc(C)n4-c4ccccc43)CC2)c2cccc(C)c2)c1 [Compound 147, 4,5-dihydro-1-methyl-5-[3-[4-[bis(3-tolyl)methylene]piperidin-1-yl]propyl] [1,2,4]triazolo[4,3,a]quinoxaline] | 
6 | 4090 | 1520 | Cc1nnc2n1-c1ccccc1N(CCCN1CCC(C(=O)c3ccccc3)CC1)C2 [Compound 128, 4,5-dihydro-1-methyl-5-[3-(4-benzoylpiperidin-1-yl)propyl] [1,2,4]triazolo[4,3-a]quinoxaline] | 
7 | 1080 | 206 | Cc1nnc2n1-c1ccccc1N(CCCN1CCC(=C(c3ccccc3)c3ccc(Cl)cc3)CC1)C2 [Compound 149, 4,5-dihydro-1-methyl-5-[3-[4-[(4-chlorophenyl)phenylmethylene]piperidin-1-yl]propyl] [1,2,4]triazolo[4,3,a]quinoxaline] | 
8 | 609 | 342 | Cc1nnc2n1-c1ccccc1N(CCCN1CCC(=C(c3ccccc3)c3ccc4ccccc4c3)CC1)C2 [Compound 163, 4,5-dihydro-1-methyl-5-[3-[4-[(2-naphthyl)phenylmethylene]piperidin-1-yl]propyl] [1,2,4]triazolo[4,3,a]quinoxaline] | 
9 | 1520 | 820 | Cc1nnc2n1-c1ccccc1N(CCCN1CCC(=C(c3cccs3)c3cccs3)CC1)C2 [Compound 165, 4,5-dihydro-1-methyl-5-[3-[4-[bis(2-thienyl)methylene]piperidin-1-yl]propyl] [1,2,4]triazolo[4,3,a]quinoxaline] | 
10 | 30.2 | 557 | Cc1nnc2n(CCCN3CCC(c4c[nH]c5ccc(F)cc45)CC3)c3ccccc3n12 [Compound 196, 3-methyl-9-[3-[4-(5-fluoro-3-indolyl)piperidin-1-yl]propyl]-9H-[1,2,4]triazolo[4,3-a]benzimidazole] | 
11 | 4340 | 10400 | Cc1nnc2n1-c1ccc(Cl)cc1N(CCCN1CCC(c3c[nH]c4ccccc34)CC1)C2 [Compound 65, 7-chloro-4,5-dihydro-1-methyl-5-[3-[4-(3-indolyl)piperidin-1-yl]propyl][1,2,4]triazolo[4,3-a]quinoxaline] | 
12 | 1700 | 411 | COc1ccccc1C(=C1CCN(CCCN2Cc3nnc(C)n3-c3ccccc32)CC1)c1ccccc1OC [Compound 145, 4,5-dihydro-1-methyl-5-[3-[4-[bis(2-methoxyphenyl)methylene]piperidin-1-yl]propyl] [1,2,4]triazolo[4,3,a]quinoxaline] | 
13 | 340 | 340 | Cc1nnc2n1-c1ccccc1N(CCCN1CCC(C(O)(c3ccccc3)c3cccs3)CC1)C2 (centres unmarked) [Compound 129] | 
14 | 455 | 152 | Cc1nnc2n1-c1ccccc1N(CCCN1CCC(C(O)(c3cccs3)c3cccs3)CC1)C2 [Compound 127] | 
15 | 6180 | 199 | Cc1nnc2n1-c1ccccc1N(CCCN1CCC(=C3c4ccccc4CCc4ccccc43)CC1)C2 [Compound 87, 4,5-dihydro-1-methyl-5-[3-[4-(10,11-dihydro-5H-dibenzo[a,d]cyclohepten-5-ylidene)piperidin-1-yl]propyl][1,2,4]triazolo[4,3-a] quinoxaline] | 
16 | 1710 | 675 | Cc1nnc2n1-c1ccccc1N(CCCN1CCC(=C3c4ccccc4COc4ccccc43)CC1)C2 [Compound 88, 4,5-dihydro-1-methyl-5-[3-[4-(6,11-dihydrodibenzo[b.e]oxepin-11-ylidene)piperidin-1-yl]propyl][1,2,4]triazolo[4,3-a] quinoxaline] | 

Row | IC50 [1, 3] [nM] | IC50 [2] [nM] | SMILES | IC50 ([1]; read-out: PAF-Induced Platelet Aggregation IC50) [nM]
17 | 97.8 | 9.58 | Cc1cccc(C(O)(c2cccc(C)c2)C2CCN(CCCN3Cc4nnc(C)n4-c4ccccc43)CC2)c1 [Compound 134, 4,5-dihydro-1-methyl-5-[3-[4-[hydroxybis(3-tolyl)methyl]piperidin-1-yl]propyl][1,2,4]triazolo[4,3-a]quinoxaline] | 
18 | 2200 | 132 | Cc1nnc2n1-c1ccccc1N(CCCN1CCC(=C(c3cccc(Cl)c3)c3cccc(Cl)c3)CC1)C2 [Compound 155, 4,5-dihydro-1-methyl-5-[3-[4-[bis(3-chlorophenyl)methylene]piperidin-1-yl]propyl] [1,2,4]triazolo[4,3,a]quinoxaline] | 
19 | 3030 | 238 | Cc1nnc2n1-c1ccccc1N(CCCN1CCC(=C(c3ccccc3)c3ccccc3)C1)C2 [Compound 85, 4,5-dihydro-1-methyl-5-[3-[3-(diphenylmethylene)pyrrolidin-1-yl]propyl][1,2,4]triazolo[4,3-a] quinoxaline] | 
20 |  | 6460 | Cc1nnc2n1-c1ccccc1N(CCN1CCN(C(c3ccccc3)c3ccccc3)CC1)C2 [Compound 43, 4,5-dihydro-1-methyl-5-[3-[4-(diphenylmethyl)piperazin-1-yl]ethyl][1,2,4]triazolo[4,3-a]quinoxaline fumaric acid salt] | 
21 | 1350 |  | CCc1nnc2n1-c1ccccc1N(CCCN1CCC(=C(c3ccccc3)c3ccccc3)CC1)C2 [Compound 92, 1-ethyl-4,5-dihydro-5-[3-[4-(diphenylmethylene)piperidin-1-yl]propyl][1,2,4]triazolo[4,3-a] quinoxaline] | 
22 |  | 202 | Cc1nnc2n1-c1ccccc1N(CCCN1CCC(OC(c3ccccc3)c3ccccc3)CC1)C2 [Compound 76, 4,5-dihydro-1-methyl-5-[3-[4-(diphenylmethoxy)piperidin-1-yl]propyl][1,2,4]triazolo[4,3-a] quinoxaline tartaric acid salt] | 
23 |  | 1670 | Cc1nnc2n1-c1ccccc1N(CCCN1CCN(C(c3ccccc3)c3ccccc3)CC1)C2 [Compound 44, 4,5-dihydro-1-methyl-5-[3-[4-(diphenylmethyl)piperazin-1-yl]propyl][1,2,4]triazolo[4,3-a]quinoxaline] | 
24 |  | 702 | Cc1nnc2n1-c1ccccc1N(CCCN1CCN(C(c3ccccc3)c3ccc(Cl)cc3)CC1)C2 (centres unmarked) [Compound 69, 4,5-dihydro-1-methyl-5-[3-[4-[(4-chlorophenyl)phenylmethyl]piperazin-1-yl]propyl][1,2,4]triazolo[4,3-a]quinoxaline] | 
25 |  | 950 | Cc1nnc2n1-c1ccccc1N(CCCN1CCC(c3c[nH]c4ccc(Br)cc34)CC1)C2 [Compound 56, 4,5-dihydro-1-methyl-5-[3-[4-(5-bromo-3-indolyl)piperidin-1-yl]propyl] [1,2,4]triazolo[4,3-a]quinoxaline] | 
26 |  | 2700 | Cc1nnc2n1-c1ccccc1N(CCCN1CCC(c3c[nH]c4ccc(F)cc34)CC1)C2 [Compound 57, 4,5-dihydro-1-methyl-5-[3-[4-(5-fluoro-3-indolyl)piperidin-1-yl]propyl] [1,2,4]triazolo[4,3-a]quinoxaline] | 
27 |  |  | Cc1nnc2n1-c1ccccc1N(CCCN1CC=C(c3c[nH]c4ccccc34)CC1)C2 [Compound 63, 4,5-dihydro-1-methyl-5-[3-[1,2,3,6-tetrahydro-4-(3-indolyl)pyridin-1-yl]propyl] [1,2,4]triazolo[4,3-a]quinoxaline] | 10400
28 |  | 357 | Cc1nnc2n1-c1ccccc1N(CCCN1CCC(C(O)(c3ccccc3)c3ccccc3)CC1)C2 [Compound 74, 4,5-dihydro-1-methyl-5-[3-[4-(hydroxydiphenylmethyl)piperidin-1-yl]propyl][1,2,4]triazolo[4,3-a] quinoxaline tartaric acid salt] | 
29 |  | 7100 | Cc1nnc2n(CCN3CCN(C(c4ccccc4)c4ccccc4)CC3)c3ccccc3n12 [Compound 191, 3-methyl-9-[3-[4-(diphenylmethyl)piperazin-1-yl]ethyl]-9H-[1,2,4]triazolo[4,3-a]benzimidazole fumaric acid salt] | 
30 |  | 636 | Cc1ccc2[nH]cc(C3CCN(CCCN4Cc5nnc(C)n5-c5ccccc54)CC3)c2c1 [Compound 58, 4,5-dihydro-1-methyl-5-[3-[4-(5-methyl-3-indolyl)piperidin-1-yl]propyl] [1,2,4]triazolo[4,3-a]quinoxaline] | 
31 |  | 1160 | COc1ccc2[nH]cc(C3CCN(CCCN4Cc5nnc(C)n5-c5ccccc54)CC3)c2c1 [Compound 54, 4,5-dihydro-1-methyl-5-[3-[4-(5-methoxy-3-indolyl)piperidin-1-yl]propyl] [1,2,4]triazolo[4,3-a]quinoxaline] | 
32 |  | 803 | Cc1nnc2n1-c1ccccc1N(CCCN1CCC(c3c[nH]c4ccc(Cl)cc34)CC1)C2 [Compound 55, 4,5-dihydro-1-methyl-5-[3-[4-(5-chloro-3-indolyl)piperidin-1-yl]propyl] [1,2,4]triazolo[4,3-a]quinoxaline] | 
